Experiments:
[1] = tested on: pro-inflammatory chemokines and cytokines in spinal cords; experiment: q-PCR for pro-inflammatory chemokines and cytokines in spinal cords of EAE mice; type: in vivo; details: 0.4 mg/kg oral, 28 days after immunization
Protocol: Preparation of RNA, cDNA and Quantitative Real Time PCR (Q-PCR): RNA was prepared from cells using an RNeasy mini kit (Qiagen, Valencia, Calif.). For cDNA preparation, 1 μg of RNA was combined with oligo-dT for 10 minutes at 70° C., and 1^St strand buffer, dithiothreitol (DTT), deoxynucleotides (dNTP) and super-script reverse transcriptase (SS-II) (Invitrogen, Carlsbad, Calif.) were then added for 50 minutes at 42° C. The reaction was ended by incubation for an additional 15 minutes at 70° C. All real time quantitative PCR (q-PCR) reactions were performed using LightCycler Taqman master (Roche Diagnostics, Mannheim, Germany) and the LightCycler (Roche). For tissue mRNA expression, total RNA was extracted from spinal cord using the RNeasy lipid tissue mini kit RNA. Ready sets of probe with primers for q-PCR were purchased from Applied Biosystems (Foster City, Calif.).
(§1) EAE (experimental autoimmune encephalomyelitis) induction: Mice were immunized subcutaneously with an emulsion containing 1.5 mg/ml MOG peptide 35-55 ([…]) (Sigma-Aldrich, Rehovot, Israel) and 2.5 mg/ml complete Freund's adjuvant (CFA), 100 μl in each flank. Pertussis toxin (500 ng in 500 μl PBS) was administered intra-peritoneally immediately and 48 hours after immunization. For prevention of EAE, CI-302 or PBS was given orally once a day for 10 consecutive days beginning 5 days before immunization.

IL-12/23 p40 [2] = experiment: q-PCR for p40 mRNA in peptidoglycan-activated CD11c+ BMDCs; type: cell-based, mouse; details: 20 μg/ml for 1 hour, then 10 μg/ml peptidoglycan for 2, 3 and 4 hours, normalized to GAPDH (FIG. 6)
Protocol: Generation of bone-marrow derived dendritic cells (BMDC's): Bone-marrow was flushed out with cold RPMI-1640 medium from mice femur and tibia. A cell suspension was prepared and erythrocytes were removed using red blood cell (RBC) lysis buffer (Beit Haemek, Israel). Cells were washed in phosphate buffer saline (PBS) (Beit Haemek, Israel), and incubated at 4° C. for 15 minutes in buffer containing PBS and 0.5% bovine serum albumin (BSA) with mouse B220 and CD90 microbeads (Miltenyi biotech, Bergisch Gladbach, Germany). Cells were then washed, resuspended in the same buffer, and depleted from B and T cells on a Midi-Macs separation unit through a LD or LS column (Miltenyi Biotech). The depleted cells were then counted, washed and seeded (10^6/ml) in medium containing RPMI-1640 medium, L-glutamine, β-mercaptoethanol, 10% fetal calf serum (FCS), antibiotics (penicillin, streptomycin) and 20 ng/ml of mouse granulocyte-macrophage colony-stimulating factor (GM-CSF) (Peprotech, Rehovot, Israel). […]
Preparation of RNA, cDNA and Quantitative Real Time PCR (Q-PCR): RNA was prepared from cells using an RNeasy mini kit (Qiagen, Valencia, Calif.). […] All real time quantitative PCR (q-PCR) reactions were performed using LightCycler Taqman master (Roche Diagnostics, Mannheim, Germany) and the LightCycler (Roche). […]

IL-12/23 p40 [3] = experiment: IL-12/23 p40 production by peptidoglycan-activated BMDCs (ELISA); type: cell-based, mouse; details: BMDCs activated with 10 μg/ml peptidoglycan
Protocol: Generation of bone-marrow derived dendritic cells (BMDC's): Bone-marrow was flushed out with cold RPMI-1640 medium from mice femur and tibia. A cell suspension was prepared and erythrocytes were removed using red blood cell (RBC) lysis buffer (Beit Haemek, Israel). Cells were washed in phosphate buffer saline (PBS) (Beit Haemek, Israel), and incubated at 4° C. for 15 minutes in buffer containing PBS and 0.5% bovine serum albumin (BSA) with mouse B220 and CD90 microbeads (Miltenyi biotech, Bergisch Gladbach, Germany). Cells were then washed, resuspended in the same buffer, and depleted from B and T cells on a Midi-Macs separation unit through a LD or LS column (Miltenyi Biotech). The depleted cells were then counted, washed and seeded (10^6/ml) in medium containing RPMI-1640 medium, L-glutamine, β-mercaptoethanol, 10% fetal calf serum (FCS), antibiotics (penicillin, streptomycin) and 20 ng/ml of mouse granulocyte-macrophage colony-stimulating factor (GM-CSF) (Peprotech, Rehovot, Israel). Medium was replaced every other day and cells were used for subsequent experiments on days 5-6 post culturing.
Cytokine analysis: For the detection of cytokine production, supernatants from 24-hour post-treatment BMDCs were tested with Duoset ELISA kits for mouse IL12/23 p40 (R&D systems, Minneapolis, Minn.). […]

[4] = tested on: tyrosine phosphorylation in peritoneal macrophages; experiment: Western blot of phosphotyrosine in peritoneal macrophages; type: cell-based; details: thioglycolate-stimulated peritoneal macrophages, 20 μg/ml, 10 minutes (FIG. 10)
Protocol: Western blot: Thioglycolate-stimulated peritoneal macrophages were treated for 10 minutes with 20 μg/ml of CI-302. 20 μg/ml of phosphatidylcholine or solvent served as negative controls, whereas CI-201 served as a positive control. Whole cell lysates were resolved by SDS-PAGE on 10% Tris/HCl denaturing gel, transferred to nitrocellulose membranes and blotted with anti-phosphotyrosine antibody. Blotting with anti-ERK1/2 antibody served as a loading control.

human platelets = experiment: Platelet aggregation assay; type: cell-based; details: human platelet-rich plasma, 5 minutes; CI-302 in escalating concentrations of up to 1 mM; PAF 0.125-0.25 μM (FIGS. 2-4)
Protocol: Platelet aggregation assay: Platelet-rich plasma was prepared from citrated whole human blood by centrifugation (200 g for 20 minutes). The final platelet concentration was adjusted to 2×10^8 platelets/ml with autologous plasma. CI-302 and PAF dissolved in PBS were added to induce platelet activation while the platelet sample was stirred at 1,000 rpm at 37° C. Aggregation was recorded for 5 minutes using an AggRAM 4-channel aggregometer (AggRAM aggregation Remote Analyzer Module; Helena Laboratories).

[5] = tested on: collagen-induced arthritis; experiment: Collagen-induced arthritis (CIA), arthritis score; type: in vivo, DBA/1 male mice; details: 0.4 mg/kg by gavage daily from day 22 to day 39, CIA mouse model (FIG. 9)
Protocol: Collagen-induced arthritis (CIA) induction: DBA/1 male mice were immunized to induce arthritis by a collagen injection containing complete Freund's adjuvant (CFA) in the base of the tail (day 0) and a booster shot in the flank (day 21). Mice were followed for arthritis development until day 39. Administration by gavage of the tested compounds and control substances began on day 22 and was carried out on a daily basis (6 times per week).
The severity of arthritis was assessed as follows:
Each paw is scored on a scale of 0-4 for the degree of swelling, erythema, and deformity of the joints (maximum score 16 per animal) as follows [Brackertz et al., 1977]:
0=normal 1=slight erythema and/or swelling of the ankle or wrist or toes 2=moderate erythema and/or swelling of the ankle or wrist 3=severe erythema and/or swelling of the ankle or wrist (or moderate in combination of all toes) 4=complete erythema and swelling of toes or fingers and ankle or wrist, and inability to bend the ankle or wrist

MOG induced EAE = experiment: MOG peptide-induced experimental autoimmune encephalomyelitis (EAE), clinical score; type: in vivo, mice; details: from 5 days before to 5 days after MOG 35-55 immunization (FIG. 7)
Protocol: as §1, with “Mice: Female 8-10 week old […] mice were purchased from Harlan Laboratories (Israel). EAE (experimental” for “EAE (experimental”, “before immunization. The severity of EAE was assessed utilizing clinical scores determined as follows: 0=normal, 1=limp tail, 2=weakness of hind limbs, 3=hind leg paralysis, 4=hind and fore leg paralysis, 5=moribund or death” for “before immunization.”

## CCCCCCCCCCCCCCCCOC[C@H](COP(=O)([O-])OCC[N+](C)(C)C)OC(=O)CCC [CI-302, 1-hexadecyl-2-butyroyl-sn-glycero-3-phosphocholine]
[1]; relative to PBS-treated group (FIG. 8A)
  p40 gene transcription in spinal cord: reduced
[1]; relative to PBS-treated group (FIG. 8B)
  p35 gene transcription in spinal cord: reduced
[1]; relative to PBS-treated group (FIG. 8C)
  CCL2 (MCP-1) transcription in spinal cord: reduced
[1]; relative to PBS-treated group (FIG. 8D)
  IFN-γ transcription in spinal cord: reduced
[1]; relative to PBS-treated group (FIG. 8E)
  TNF-α transcription in spinal cord: reduced
[1]; relative to control mice (FIG. 8F)
  CD4 mRNA levels in spinal cord: considerably lower
IL-12/23 p40 [2]
  p40 mRNA expression: inhibited p40 mRNA expression considerably
IL-12/23 p40 [3]; 1 hour pre-incubation, supernatants 24 hours, highest CI-302 concentration tested (FIG. 5A)
  maximal reduction of p40 production: 45%
IL-12/23 p40 [3]; escalating CI-302 concentrations, ELISA at 24 hours (FIG. 5A)
  production of p40 by activated BMDCs: significantly inhibited production of p40 by activated BMDCs in a dose-dependent manner
[4]
  level of phosphotyrosine: strongly reduced the level of phosphotyrosine
Human platelets
  platelet aggregation: no platelet aggregation was observed
[5]
  arthritis severity (mean score): decreased arthritis severity throughout the study period
MOG induced EAE; 0.04 mg/kg orally once a day
  protection against EAE development (mean clinical score): noticeable though milder protection
MOG induced EAE; 0.4 mg/kg orally once a day
  protection against EAE development (mean clinical score): close to complete protection

## CCCCCCCCCCCCCCCCOC[C@H](COP(=O)([O-])OCC[N+](C)(C)C)OC(C)=O [PAF, 1-hexadecyl-2-acetoyl-sn-glycero-3-phosphocholine, reference compound]
Human platelets
  platelet aggregation: substantial platelet aggregation

## L-a-phosphatidylcholine [PC, reference compound]
IL-12/23 p40 [2]
  p40 mRNA expression: little or no effect

— patent US20110230450A1, “PLATELET-ACTIVATING FACTOR (PAF) ANALOGS AND USES THEREOF” (Vascular Biogenics Lts, priority 2007, published 2011)
